Measurements reported in patent publication US7186741B2, “Neurotensin active 2,3,diaryl-pyrazolidine derivatives” (Solvay Pharmaceuticals B.V., priority 2002, dated 2007).

Tested on: enzymes which degrade the neuropeptide neurotensin
Assay: pharmacological activity of stereoisomers/racemates (test not specified)
Type: biochemical
Settings: result in words; comparison of enantiomers or diastereomeric racemates
From the text: The invention relates to a group of new 2,3-diaryl-pyrazolidine derivatives having inhibiting activity on enzymes which degrade the neuropeptide neurotensin.
The compounds according to the invention are active in inhibiting the abovementioned enzymes in the range of 5.0–8.0 (plC50 values), when tested according to the methods described in Biochem. J. 280, 421–426, and Eur. J. Biochem. 202, 269–276.

pharmacological activity (active / inactive racemate, eutomer): eutomer
SMILES: O=C(NCC(=O)N1CCC(c2ccccc2Cl)N1c1ccccc1Cl)NC1C2CC3CC(C2)CC1C3 (stereo not shown) [Compound A12]
